According to the supplement of paper PMC12463676, “Small-molecule dissolution of stress granules by redox modulation benefits ALS models” (Nature Chemical Biology, 2025):

Columns and labels:
lipoamide = compound: NC(=O)CCCCC1CCSS1 [lipoamide]; experiment: thermal stability z-score vs DMSO; higher = more thermally stabilized by treatment; details: HeLa, lipoamide concentration 100 µM
Protocol: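 Cellular thermal proteome profiling in HeLa cells. Cells were treated with 100 µM lipoamide for 1 h, with or without 1 mM arsenate for a further 1 h, then heated to ten temperatures (37-66.3 °C), and soluble protein was quantified by TMT mass spectrometry relative to 0.1% DMSO controls. The thermal stability score (sum of log2 fold changes minus the abundance score) was transformed to a z-score; mean of n = 3 experiments.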

potassium arsenate = compound: O=[As]([O-])(O)O.[K+] [potassium arsenate]; experiment: as above; details: HeLa; arsenate concentration 1 mM
Protocol: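 Cellular thermal proteome profiling in HeLa cells treated with 1 mM arsenate for 1 h (DMSO pretreatment), heated to ten temperatures (37-66.3 °C). Soluble protein was quantified by TMT mass spectrometry relative to DMSO controls; the thermal stability score was transformed to a z-score; mean of n = 3 experiments.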

[1] = arsenate co-treatment: 1 mM arsenate 1 h
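Also: each temperature applied for 3 min, abundance score taken as mean log2 fold change at the two lowest temperatures, z-score obtained by mean subtraction and division by SD.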

Sequence of UniProt O14562 (O14562 whole entry): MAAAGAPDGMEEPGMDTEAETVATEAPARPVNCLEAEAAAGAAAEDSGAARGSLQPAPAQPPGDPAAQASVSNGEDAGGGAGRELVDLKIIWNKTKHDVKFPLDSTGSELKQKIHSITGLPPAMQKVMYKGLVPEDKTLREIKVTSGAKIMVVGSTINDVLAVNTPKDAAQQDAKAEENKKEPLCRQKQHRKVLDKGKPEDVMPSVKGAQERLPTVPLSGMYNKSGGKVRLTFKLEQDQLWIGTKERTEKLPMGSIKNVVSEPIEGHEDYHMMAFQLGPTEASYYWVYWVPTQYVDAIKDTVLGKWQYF
Sequence of UniProt Q9Y2V2 (Q9Y2V2 whole entry): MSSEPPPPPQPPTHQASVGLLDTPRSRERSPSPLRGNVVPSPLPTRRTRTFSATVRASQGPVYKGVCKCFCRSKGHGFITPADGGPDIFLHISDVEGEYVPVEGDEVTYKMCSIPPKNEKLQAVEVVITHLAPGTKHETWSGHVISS
Sequence of UniProt P25208 (P25208 whole entry): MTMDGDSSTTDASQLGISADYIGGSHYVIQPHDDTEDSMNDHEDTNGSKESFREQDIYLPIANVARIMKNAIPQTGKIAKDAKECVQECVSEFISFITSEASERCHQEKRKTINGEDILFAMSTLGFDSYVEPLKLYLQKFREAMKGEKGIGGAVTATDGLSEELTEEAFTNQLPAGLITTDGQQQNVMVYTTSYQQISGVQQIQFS
Sequence of UniProt O75674 (O75674 whole entry): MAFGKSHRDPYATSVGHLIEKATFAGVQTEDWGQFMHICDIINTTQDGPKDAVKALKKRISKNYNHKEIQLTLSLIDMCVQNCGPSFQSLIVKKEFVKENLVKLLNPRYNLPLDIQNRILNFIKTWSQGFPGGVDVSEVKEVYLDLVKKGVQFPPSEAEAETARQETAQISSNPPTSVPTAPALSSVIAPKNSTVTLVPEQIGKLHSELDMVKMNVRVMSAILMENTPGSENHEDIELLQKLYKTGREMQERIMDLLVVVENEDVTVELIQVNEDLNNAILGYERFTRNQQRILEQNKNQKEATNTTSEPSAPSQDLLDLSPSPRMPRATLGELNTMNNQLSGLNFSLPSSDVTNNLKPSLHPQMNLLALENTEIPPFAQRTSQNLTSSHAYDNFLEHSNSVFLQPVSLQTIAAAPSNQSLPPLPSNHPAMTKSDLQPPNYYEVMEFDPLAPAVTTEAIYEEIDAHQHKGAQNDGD
Sequence of UniProt Q14011 (Q14011 whole entry): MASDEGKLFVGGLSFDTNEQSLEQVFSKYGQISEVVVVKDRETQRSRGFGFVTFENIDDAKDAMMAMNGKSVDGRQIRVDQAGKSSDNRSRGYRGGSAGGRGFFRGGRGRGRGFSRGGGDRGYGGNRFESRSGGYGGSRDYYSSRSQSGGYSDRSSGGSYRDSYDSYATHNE
Sequence of UniProt Q15022 (Q15022 whole entry): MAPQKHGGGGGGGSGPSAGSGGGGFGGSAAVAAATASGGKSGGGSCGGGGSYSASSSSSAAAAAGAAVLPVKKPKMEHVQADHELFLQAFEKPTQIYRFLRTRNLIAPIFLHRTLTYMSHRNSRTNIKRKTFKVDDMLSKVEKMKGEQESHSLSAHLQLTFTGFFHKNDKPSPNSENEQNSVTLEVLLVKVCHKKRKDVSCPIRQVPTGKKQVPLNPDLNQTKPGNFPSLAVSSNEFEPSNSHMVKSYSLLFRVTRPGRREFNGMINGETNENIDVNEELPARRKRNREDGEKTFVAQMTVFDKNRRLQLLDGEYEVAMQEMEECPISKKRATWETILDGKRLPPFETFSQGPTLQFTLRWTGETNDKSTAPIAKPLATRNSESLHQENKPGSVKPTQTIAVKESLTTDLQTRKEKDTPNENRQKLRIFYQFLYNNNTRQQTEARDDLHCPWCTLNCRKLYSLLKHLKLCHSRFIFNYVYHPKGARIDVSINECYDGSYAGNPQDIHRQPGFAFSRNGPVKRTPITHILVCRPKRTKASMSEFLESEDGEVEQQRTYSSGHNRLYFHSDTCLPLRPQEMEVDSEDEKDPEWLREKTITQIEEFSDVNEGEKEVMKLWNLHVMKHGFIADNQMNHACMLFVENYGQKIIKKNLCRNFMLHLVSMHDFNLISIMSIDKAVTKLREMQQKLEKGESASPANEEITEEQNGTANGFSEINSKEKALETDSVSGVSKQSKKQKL
Sequence of UniProt P17050 (P17050 whole entry): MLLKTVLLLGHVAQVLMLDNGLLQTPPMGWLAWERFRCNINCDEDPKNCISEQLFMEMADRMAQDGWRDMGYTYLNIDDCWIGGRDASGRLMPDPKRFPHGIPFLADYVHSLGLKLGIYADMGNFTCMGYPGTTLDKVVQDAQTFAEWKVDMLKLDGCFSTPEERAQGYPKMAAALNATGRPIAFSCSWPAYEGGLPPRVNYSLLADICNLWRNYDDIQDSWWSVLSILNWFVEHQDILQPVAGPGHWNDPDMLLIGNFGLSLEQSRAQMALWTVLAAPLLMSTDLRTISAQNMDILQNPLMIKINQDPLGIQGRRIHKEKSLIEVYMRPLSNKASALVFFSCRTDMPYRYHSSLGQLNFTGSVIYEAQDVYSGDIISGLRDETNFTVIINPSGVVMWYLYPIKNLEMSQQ
Sequence of UniProt Q92917 (Q92917 whole entry): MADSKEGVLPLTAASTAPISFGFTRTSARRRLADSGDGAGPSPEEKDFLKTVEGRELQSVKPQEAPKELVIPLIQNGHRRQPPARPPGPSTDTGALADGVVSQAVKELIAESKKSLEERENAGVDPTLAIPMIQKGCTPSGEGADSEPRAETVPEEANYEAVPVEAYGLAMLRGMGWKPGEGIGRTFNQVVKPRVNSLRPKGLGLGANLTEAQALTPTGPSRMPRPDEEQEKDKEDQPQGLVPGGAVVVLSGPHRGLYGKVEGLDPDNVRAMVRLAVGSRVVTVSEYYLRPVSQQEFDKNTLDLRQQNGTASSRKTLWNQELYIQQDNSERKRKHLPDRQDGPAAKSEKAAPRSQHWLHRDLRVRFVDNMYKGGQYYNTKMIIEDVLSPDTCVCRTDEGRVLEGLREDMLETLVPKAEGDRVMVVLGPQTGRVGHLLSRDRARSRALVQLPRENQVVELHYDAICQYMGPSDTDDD
Sequence of UniProt Q9Y314 (Q9Y314 whole entry): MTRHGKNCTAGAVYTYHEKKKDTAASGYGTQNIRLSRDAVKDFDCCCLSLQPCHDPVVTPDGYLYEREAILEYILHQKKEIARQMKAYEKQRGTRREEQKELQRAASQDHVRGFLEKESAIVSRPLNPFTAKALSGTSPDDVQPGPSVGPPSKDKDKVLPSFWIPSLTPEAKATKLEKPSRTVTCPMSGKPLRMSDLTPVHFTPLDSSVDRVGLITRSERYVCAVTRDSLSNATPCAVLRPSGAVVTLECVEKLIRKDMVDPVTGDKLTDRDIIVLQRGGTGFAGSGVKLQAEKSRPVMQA
Sequence of UniProt Q99497 (Q99497 whole entry): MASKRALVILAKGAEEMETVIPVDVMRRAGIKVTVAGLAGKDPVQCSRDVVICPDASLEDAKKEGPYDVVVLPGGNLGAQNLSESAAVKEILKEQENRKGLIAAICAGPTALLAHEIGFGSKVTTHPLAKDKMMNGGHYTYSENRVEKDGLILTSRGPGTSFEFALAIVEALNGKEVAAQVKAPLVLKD
Sequence of UniProt Q7Z7E8 (Q7Z7E8 whole entry): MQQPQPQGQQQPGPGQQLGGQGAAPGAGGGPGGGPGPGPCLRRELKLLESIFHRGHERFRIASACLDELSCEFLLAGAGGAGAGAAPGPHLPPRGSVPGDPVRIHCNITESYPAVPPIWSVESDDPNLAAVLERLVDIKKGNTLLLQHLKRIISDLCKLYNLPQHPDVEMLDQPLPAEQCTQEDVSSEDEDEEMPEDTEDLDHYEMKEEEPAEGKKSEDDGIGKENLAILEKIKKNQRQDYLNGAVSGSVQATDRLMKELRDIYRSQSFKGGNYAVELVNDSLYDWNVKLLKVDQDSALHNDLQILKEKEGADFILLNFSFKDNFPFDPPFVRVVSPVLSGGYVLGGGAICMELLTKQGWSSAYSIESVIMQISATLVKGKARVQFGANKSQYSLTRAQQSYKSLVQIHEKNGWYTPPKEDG
Sequence of UniProt Q9Y2W2 (Q9Y2W2 whole entry): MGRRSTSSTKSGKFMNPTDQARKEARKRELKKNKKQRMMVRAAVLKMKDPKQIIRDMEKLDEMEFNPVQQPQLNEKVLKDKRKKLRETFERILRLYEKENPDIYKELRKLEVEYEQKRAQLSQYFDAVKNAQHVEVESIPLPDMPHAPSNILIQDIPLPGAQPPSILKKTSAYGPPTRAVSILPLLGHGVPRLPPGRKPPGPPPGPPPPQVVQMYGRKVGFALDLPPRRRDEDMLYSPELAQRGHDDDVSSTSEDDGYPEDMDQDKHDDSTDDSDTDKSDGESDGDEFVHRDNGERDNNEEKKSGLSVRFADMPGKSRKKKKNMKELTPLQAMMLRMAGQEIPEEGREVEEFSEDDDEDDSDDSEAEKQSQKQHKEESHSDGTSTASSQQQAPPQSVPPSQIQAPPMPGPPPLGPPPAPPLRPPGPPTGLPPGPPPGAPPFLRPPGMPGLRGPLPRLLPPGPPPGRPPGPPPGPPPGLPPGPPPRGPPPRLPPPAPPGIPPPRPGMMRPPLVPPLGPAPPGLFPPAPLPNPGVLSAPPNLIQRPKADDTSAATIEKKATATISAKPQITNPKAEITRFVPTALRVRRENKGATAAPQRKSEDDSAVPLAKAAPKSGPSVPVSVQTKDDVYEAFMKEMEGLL
Sequence of UniProt A5PLN9 (A5PLN9 whole entry): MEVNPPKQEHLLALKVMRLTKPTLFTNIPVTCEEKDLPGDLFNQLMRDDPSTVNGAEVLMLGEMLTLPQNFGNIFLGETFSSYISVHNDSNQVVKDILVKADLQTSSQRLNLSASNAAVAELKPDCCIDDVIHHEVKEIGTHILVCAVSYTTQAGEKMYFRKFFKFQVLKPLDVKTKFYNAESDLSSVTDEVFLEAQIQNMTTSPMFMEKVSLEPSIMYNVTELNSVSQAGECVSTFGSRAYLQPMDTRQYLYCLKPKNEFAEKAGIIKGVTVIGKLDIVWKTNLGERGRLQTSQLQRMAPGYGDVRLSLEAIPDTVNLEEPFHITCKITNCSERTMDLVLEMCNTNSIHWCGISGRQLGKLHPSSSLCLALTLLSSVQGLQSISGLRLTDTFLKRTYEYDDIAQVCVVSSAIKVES

Target | thermal stability z-score (lipoamide; [1]) | thermal stability z-score (lipoamide; arsenate co-treatment: none) | thermal stability z-score (potassium arsenate)
IGHMBP2 (UniProt P38935) | 0.0798 | 0.0388 | -0.187
SRP19 (UniProt P09132) | -0.296 | -0.485 | 0.033
UBE2Q1 (UniProt Q7Z7E8) | -0.546 | -0.425 | -0.514
SYNJ2BP (UniProt P57105) | 0.988 | 0.247 | 0.518
PDK1 (UniProt Q15118) | 0.35 | -0.0874 | 0.836
PARK7 (UniProt Q99497) | 4.83 | 0.686 | 4.42
FOXRED1 (UniProt Q96CU9) | -0.111 | -0.24 | 0.0548
SNX27 (UniProt Q96L92) | -0.141 | 0.167 | 0.511
PAXIP1 (UniProt Q6ZW49) | -0.0199 | 0.255 | 0.00378
NAGA (UniProt P17050) | -0.786 | -0.0771 | 0.546
SLC27A2 (UniProt O14975) | -0.257 | -0.484 | 0.45
TOM1L1 (UniProt O75674) | -1 | -0.807 | -0.623
EEF1B2 (UniProt P24534) | 0.748 | 0.472 | 0.849
SNX17 (UniProt Q15036) | -0.581 | 0.118 | -0.423
NOSIP (UniProt Q9Y314) | -1.04 | -0.0974 | 2.36
PFKM (UniProt P08237) | 0.24 | 0.235 | -0.134
PHKG2 (UniProt P15735) | 0.926 | 1.04 | 0.714
LBR (UniProt Q14739) | -0.0763 | -0.097 | 0.0853
ZZEF1 (UniProt O43149) | 0.044 | 0.201 | 0.0396
MCM5 (UniProt P33992) | -0.676 | -0.191 | 2.47
TARBP2 (UniProt Q15633) | 0.357 | 0.542 | -0.00318
AP4E1 (UniProt Q9UPM8) | -0.117 | -0.092 | -0.068
PAFAH1B2 (UniProt P68402) | 0.526 | 0.289 | -0.469
PPP6R3 (UniProt Q5H9R7) | 1.14 | 0.331 | 0.262
TMEM223 (UniProt A0PJW6) | -0.653 | 0.466 | 1.09
ZNF143 (UniProt P52747) | -0.135 | -0.0231 | 0.0928
DHX40 (UniProt Q8IX18) | 0.111 | 0.0273 | -0.0831
EIF3L (UniProt Q9Y262) | 0.23 | 0.373 | -0.297

Target | thermal stability z-score (lipoamide; [1]) | thermal stability z-score (lipoamide; arsenate co-treatment: none) | thermal stability z-score (potassium arsenate)
RTTN (UniProt Q86VV8) | -0.0275 | -0.0536 | -0.117
RPS6KA1 (UniProt Q15418) | -0.0567 | -0.413 | 0.0783
TMEM263 (UniProt Q8WUH6) | 0.283 | -0.54 | 1.43
NFYB (UniProt P25208) | 0.446 | 0.825 | -0.691
PLEKHF2 (UniProt Q9H8W4) | -0.1 | -0.117 | -0.196
HPS3 (UniProt Q969F9) | -0.021 | 0.206 | -0.255
WBP11 (UniProt Q9Y2W2) | 0.102 | 0.283 | 0.254
COX6C (UniProt P09669) | 0.703 | 0.431 | 0.836
SRSF10 (UniProt O75494) | 1.16 | 0.452 | 2.99
UBFD1 (UniProt O14562) | -0.0131 | -0.0151 | 0.066
GLOD4 (UniProt Q9HC38) | 2.19 | 2.33 | 0.311
TAOK3 (UniProt Q9H2K8) | 0.238 | 0.142 | 0.0629
CNOT3 (UniProt O75175) | -0.0612 | 0.0363 | 1.26
NCEH1 (UniProt Q6PIU2) | -0.5 | -0.83 | -0.34
MAT2A (UniProt P31153) | -0.418 | -0.422 | 0.337
TSR3 (UniProt Q9UJK0) | -0.214 | -0.723 | -1.75
MCOLN1 (UniProt Q9GZU1) | -0.724 | -0.559 | -1.27
GAPVD1 (UniProt Q14C86) | -0.367 | -0.206 | 0.0188
TRAPPC13 (UniProt A5PLN9) | 0.252 | -0.0347 | -0.371
TRIP13 (UniProt Q15645) | -0.215 | -0.735 | -0.184
GPKOW (UniProt Q92917) | 0.182 | 0.0635 | -1.58
CIRBP (UniProt Q14011) | 0.435 | -0.192 | -0.194
SUZ12 (UniProt Q15022) | -0.0278 | -0.101 | -0.186
GAN (UniProt Q9H2C0) | 0.0625 | -0.31 | -0.167
PIAS4 (UniProt Q8N2W9) | 0.144 | 0.2 | 0.136
CARHSP1 (UniProt Q9Y2V2) | 0.147 | 0.812 | -5.57
RABAC1 (UniProt Q9UI14) | 0.138 | -0.0907 | -0.431
